Details of test [1]: method as in doi:10.1076/phbi.37.4.318.5808. Particulars: cited from earlier work.
The test system of test [2] is Orobanche cumana radicles. The test is described as follows: Orobanche cumana radicle growth bioassay. The format is in vivo. As to conditions: for inhibition at 100 µg/mL: 168 h; for inhibition at 100 µg/mL / inhibition of radicle growth: 100 μg/mL, 7 days, relative to control (GR24 + 2% DMSO), ± standard error. On the procedure:
Allelopathic effects of each B. trixago extracts and isolated compounds were tested on Orobanche radicle growth according to previous protocols. Seeds of Orobanche cumana, were surface-sterilized by immersion in 0.5% (w/v) NaOCl and 0.02% (v/v) Tween 20, for 5 min, rinsed thoroughly with sterile distilled water, and dried in a laminar airflow cabinet. Approximately 100 seeds of Orobanche seeds were placed separately on 9 mm-diameter glass fiber filter paper disks (GFFP) (Whatman International Ltd., Maidstone, UK), moistened with 50 μL of sterile distilled water, and placed in incubators at 23 °C for 10 days inside Parafilm-sealed Petri dishes, to allow seed conditioning. Then, GFFP disks containing conditioned Orobanche seeds were transferred onto a sterile sheet of filter paper and transferred to new 9 cm sterile Petri dishes. Stock solutions of each B. trixago extract and isolated metabolite were respectively dissolved in dimethyl sulfoxide and subsequently individually diluted to 100 μg/mL using an aqueous solution of GR24 (10^−6 M). The final concentration of dimethyl sulfoxide was 2% in all test treatments. For each assay, 50 μL aliquots of each sample were applied to GFFP discs containing conditioned Orobanche seeds. Triplicate aliquots of a treatment only containing GR24 and 2% dimethyl sulfoxide was used as a control. Treated seeds were incubated in the dark at 23 °C for 7 days and radicle growth was determined for each GFFP disc, using a stereoscopic microscope (Leica S9i, Leica Microsystems GmbH, Wetzlar, Germany). For the characteristic of radicle growth, the value used was the average of 10 randomly selected radicles per GFFP disc. The percentage of radicle growth inhibition of each treatment was then calculated relative to the average radicle growth of control treatment.

Test [3] deals with Caenorhabditis elegans. The test is described as follows: C. elegans 24 h mortality test (ASTM E2172-01). The format is in vivo. The procedure: (§1) The ecotoxicological tests were carried out on green freshwater algae Raphidocelis subcapitata, macrophyte Lepidium sativum, water flea Daphnia magna, nematode Caenorhabditis elegans and bacterium Aliivibrio fischeri to expand the range of endpoints due to differences in species sensitivity and exposure. Testing on R. subcapitata was performed using as endpoint the algal growth inhibition after 72 h of exposure and was based on ISO 8692:2012 [65]. The algal density was determined by spectrophotometric analysis (DR5000, Hach Lange GbH, Weinheim, Germany). Ecotoxicity tests were carried out in triplicate, at 25 ± 1 °C with constant illumination of 6700 lux. Testing on L. sativum was performed according to ISO 11269-1:2012 [66] considering germination and root elongation as endpoint after 72 h. Seeds (n = 10) were exposed in triplicate in Petri dishes and incubated at 25 ± 1 °C in darkness. Daphnia magna test was conducted according to UNI EN ISO 6341:2013 [67] and the endpoint evaluated was the immobilization after 24 h. Daphnids (less than 24 h old) were exposed to the samples at 20 ± 2 °C, in darkness without feeding. Testing on C. elegans was carried out, with a few modifications, according to the ASTM E2172-01 Standard Method (2014) using the 24 h mortality endpoint. The test was performed using age-synchronous adult nematodes exposed at 20 °C to compound 4, without feeding. […]

Test [4] has as its system Daphnia magna. Put plainly: Daphnia magna immobilization test (UNI EN ISO 6341:2013). It is filed as in vivo. Particulars: 24 h. On the procedure:
as §1

In test [5] the test system is Aliivibrio fischeri. The test is described as follows: Bioluminescence inhibition test (ISO 11348-3:2007, Microtox). It is filed as in vivo. As to conditions: 0.5 h, 30 min. The procedure:
as §1

Test [6] has as its system Wistar rats. Set-up: method as in PMID 23195582. Particulars: cited from earlier work.
On the set-up of test [7]: method as in doi:10.1076/phbi.37.4.318.5808, PMID 12036030. As to conditions: cited from earlier work.
Test [8] relates to Raphidocelis subcapitata. The test is described as follows: Algal growth inhibition test (ISO 8692:2012). The format is in vivo. Particulars: 72 h. On the procedure:
as §1

The test system of test [9] is Lepidium sativum. Put plainly: whole plant or invertebrate. The format is in vivo. As to conditions: 72 h, read-out: EC50 (germination and root elongation). The procedure: as §1
Test [10] deals with radicles of Orobanche crenata. Also noted: method as in PMID 24044614. As to conditions: cited from earlier work.

≈ marks a conversion by molar mass, not a printed value.

The values that follow come from publication PMC9414233, “Iridoid Glycosides Isolated from Bellardia trixago Identified as Inhibitors of Orobanche cumana Radicle Growth” (Toxins, 2022).

One may read the inhibition as how much of the control response was suppressed. The EC50 is the concentration at which the effect is half-maximal. Take `O=C(OCC1=C[C@@H](O)[C@@H]2C=CO[C@@H](O[C@@H]3O[C@H](CO)[C@@H](O)[C@H](O)[C@H]3O)[C@H]12)c1ccccc1` [Compound 4, melampyroside]: the “antioxidant activity in β-carotene bleaching assay” value (“antioxidant activity” below) in [1] is on record as “pro-oxidant”. For the same molecule, the “phytotoxicity observed on radicles” value in [2] (100 µg/mL) is reported as “some degree of phytotoxicity observed as darkening”. Also, the inhibition at 100 µg/mL in test [2] came out at 72.6%. Besides, the EC50 was 57.2 µg/mL (≈ 127 µM) in test [3]; 33.3 µg/mL (≈ 73.8 µM) in test [4]; 76 µg/mL (≈ 169 µM) in test [5]; ≥ 100 µg/mL in test [8]; ≥ 100 µg/mL in test [9]. Also, the cardioactivity result in test [6] is “cardioactive”. Moreover, in [7], the DPPH scavenging activity result is given as “no DPPH scavenging activity”.
Take `O=C(O)c1ccccc1` [Compound 1, benzoic acid]: the “inhibitory activity on radicles” value in test [10] is listed as “moderate inhibitory activity”.
For `OCC1=CC[C@@H]2C=CO[C@@H](O[C@@H]3O[C@H](CO)[C@@H](O)[C@H](O)[C@H]3O)[C@H]12` [Compound 2, bartsioside], the inhibition at 100 µg/mL in test [2] is 61.1 ± 1.5%.
In the case of `OCC1=C[C@@H](O)[C@@H]2C=CO[C@@H](O[C@@H]3O[C@H](CO)[C@@H](O)[C@H](O)[C@H]3O)[C@H]12` [Compound 3, aucubin], the “antioxidant activity” value in test [1] was “inactive”. Besides, in [2], the “inhibition of radicle growth” value is “no significant inhibitory activity”. Also, the DPPH scavenging activity result in test [7] is on record as “no DPPH scavenging activity”.
`COC(=O)C1=CO[C@@H](O[C@@H]2O[C@H](CO)[C@@H](O)[C@H](O)[C@H]2O)[C@H]2[C@@H]1CC[C@]2(C)O` [Compound 6, mussaenoside]: the “antioxidant activity” value in [1] was “antioxidant”. The inhibition at 100 µg/mL in test [2] stood at 65.9 ± 2.9%. The DPPH scavenging activity result in test [7] is given as “no DPPH scavenging activity”.
Turning to `C=C1[C@H]2[C@H](O[C@@H]3O[C@H](CO)[C@@H](O)[C@H](O)[C@H]3O)OC=C(C(=O)OC)[C@H]2C[C@@H]1O` [Compound 5, gardoside methyl ester], in test [2], the “inhibition of radicle growth” value is reported as “no significant inhibitory activity”.
